Results from ChEMBL document CHEMBL5036332, “Glucose-Lipopeptide Conjugates Reveal the Role of Glucose Modification Position in Complexation and the Potential of Malignant Melanoma Therapy” (J Med Chem, 2021).
Calls of active or inactive are those of the source. No cut-off for these calls is given here. *1 amine or outer side, *2 acyl side, *3 side chain or, on linkers, in order; H or OH if unused. Where a SMILES comes first, the peptide text is derived from it. Side-chain parts run from the residue outwards. The star is where a group is joined. NH(CH2)3O(βDGlc) = OC[C@H]1O[C@@H](OCCCN*)[C@H](O)[C@@H](O)[C@@H]1O; Glutaryl = O=C(CCCC(=O)[*:2])[*:1]; Lauroyl = CCCCCCCCCCCC(=O)*

How the values were obtained:
B16-F10 [1] = test: Antitumor activity against mouse B16-F10 cells implanted in BALB/c mouse assessed as reduction in tumor volume at 15 mg/kg, ip administered for every 2 days; format: functional, organism-based; conditions: time 2.0 day
B16-F10 [2] = test: Antitumor activity against mouse B16-F10 cells implanted in BALB/c mouse assessed as apoptotic cells in tumor tissue at 15 mg/kg, ip administered for 12 days by TUNEL assay; format: functional, organism-based; conditions: time 12.0 day
B16-F10 [3] = test: Antiinvasive activity against mouse B16-F10 cells assessed as inhibition of cell migration at 0.75 to 1.5 microM incubated for 72 hrs by transwell migration assay; format: functional, cell-based; conditions: dose 0.75-1.5 µM
B16-F10 [4] = test: Induction of cell membrane disruption in mouse B16-F10 cells assessed as membrane permeability at 5 uM incubated for 24 hrs by trypan blue staining based light microscopy; format: functional
[5] = biological target: T1, Solute carrier family 2, facilitated glucose transporter member 1 (Homo sapiens) (UniProt P11166); test: Binding affinity to GLUT1 (unknown origin) membrane assessed as free energy
T1 sequence (whole entry): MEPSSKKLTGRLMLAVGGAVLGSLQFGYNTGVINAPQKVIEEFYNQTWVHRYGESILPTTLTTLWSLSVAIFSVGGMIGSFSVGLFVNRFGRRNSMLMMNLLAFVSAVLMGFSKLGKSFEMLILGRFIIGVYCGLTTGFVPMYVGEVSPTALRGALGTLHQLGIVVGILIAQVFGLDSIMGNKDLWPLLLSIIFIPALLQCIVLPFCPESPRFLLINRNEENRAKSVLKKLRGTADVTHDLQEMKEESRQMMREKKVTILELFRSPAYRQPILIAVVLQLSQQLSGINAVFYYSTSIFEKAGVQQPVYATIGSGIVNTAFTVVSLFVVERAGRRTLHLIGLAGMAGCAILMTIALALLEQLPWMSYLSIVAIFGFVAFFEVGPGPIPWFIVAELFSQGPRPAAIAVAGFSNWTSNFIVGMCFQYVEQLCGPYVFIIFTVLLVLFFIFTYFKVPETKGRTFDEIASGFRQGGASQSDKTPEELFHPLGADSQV

B16-F10 [6] = test: Induction of cell membrane disruption in mouse B16-F10 cells assessed as shrunken morphology at 5 uM incubated for 24 hrs by scanning electron microscopy; format: functional, cell-based
[7] = Toxicity in BALB/c mouse implanted in mouse B16-F10 cells assessed as pathological changes in liver at 15 mg/kg, ip administered for days by H& E staining based assay; format: organism-based; conditions: in vivo
B16-F10 [8] = test: Cytotoxicity against mouse B16-F10 cells assessed as LDH release at 3.125 to 6.25 uM incubated for 24 hrs by LDH assay; format: functional, cell-based; conditions: dose 3.125-6.25 µM
B16-F10 [9] = test: Antimetastatic activity against mouse B16-F10 cells implanted in KM mouse assessed as reduction lung metastatic nodules at 200 microL of 10 mg/kg, iv administered once every 2 days by H and E staining method; format: functional, organism-based; conditions: time 2.0 day
[10] = Toxicity in BALB/c mouse implanted in mouse B16-F10 cells assessed as body weight change at 15 mg/kg, ip administered for days; format: organism-based; conditions: in vivo
[11] = Toxicity in BALB/c mouse implanted in mouse B16-F10 cells assessed as pathological changes in heart at 15 mg/kg, ip administered for days by H& E staining based assay; format: organism-based; conditions: in vivo
Homo sapiens = species on record: Homo sapiens; test: Binding affinity to membrane (unknown origin) assessed as binding free energy
[12] = Toxicity in KM mouse implanted in mouse B16-F10 cells assessed as body weight change at 10 mg/kg, iv administered for days; format: organism-based; conditions: in vivo
B16-F10 [13] = test: Antitumor activity against mouse B16-F10 cells implanted in KM mouse assessed as metastatic nodules in lungs at 10 mg/kg, iv administered for every 2 days measured after 9 days; format: functional, organism-based; conditions: time 9.0 day
B16-F10 [14] = test: Anti-migration activity against mouse B16-F10 cells assessed as inhibition of spheroid migration at 2.5 uM after 3 days by crystal violet staining based assay; format: functional, cell-based; conditions: time 3.0 day
B16-F10 [15] = test: Induction of cell membrane disruption in mouse B16-F10 cells incubated for 24 hrs by SYTO 9/PI staining based fluorescence microscopy; format: functional
[16] = biological target: T1, Solute carrier family 2, facilitated glucose transporter member 1 (Homo sapiens); test: Induction of GLUT1-mediated human HeLa cell cytotoxicity assessed as cell viability at 12.5 uM incubated for 24 hrs by CCK-8 assay
B16-F10 [17] = test: Cytotoxicity against mouse B16-F10 cells assessed as inhibition of spheroid proliferation at 5 uM after 3 days by 3D-shperoid assay relative to control; format: functional, cell-based; conditions: time 3.0 day
B16-F10 [18] = test: Induction of GLUT1-mediated mouse B16-F10 cell cytotoxicity assessed as cell viability at 3.125 uM incubated for 24 hrs by CCK-8 assay
B16-F10 [19] = test: Cytotoxicity against mouse B16-F10 cells assessed as cell viability after 24 hrs by CCK-8 assay; format: functional, cell-based; conditions: B16-F10, 24 h
[20] = Toxicity in BALB/c mouse implanted in mouse B16-F10 cells assessed as pathological changes in spleen at 15 mg/kg, ip administered for days by H& E staining based assay; format: organism-based; conditions: in vivo
[21] = biological target: T1, Solute carrier family 2, facilitated glucose transporter member 1 (Homo sapiens); test: Induction of GLUT1-mediated human A549 cell cytotoxicity assessed as cell viability at 12.5 uM incubated for 24 hrs by CCK-8 assay
[22] = Stability in 10% fetal bovine serum measured after 24 hrs; format: ADME, cell-free, Bos taurus; conditions: cattle
[23] = biological target: T1, Solute carrier family 2, facilitated glucose transporter member 1 (Homo sapiens); test: Binding affinity to GLUT1 (unknown origin) assessed as binding free energy
[24] = biological target: T1, Solute carrier family 2, facilitated glucose transporter member 1 (Homo sapiens); test: Induction of GLUT1-mediated HEK293T cytotoxicity assessed as cell viability at 3.125 uM incubated for 24 hrs by CCK-8 assay
MX1 = test: Cytotoxicity against human MX1 cells assessed as cell viability measured after 24 hrs by CCK-8 assay; format: functional, cell-based; conditions: MX1, 24 h
MDA-MB-231 = test: Cytotoxicity against human MDA-MB-231 cells assessed as cell viability measured after 24 hrs by CCK-8 assay; format: functional, cell-based; conditions: MDA-MB-231, 24 h
MCF7 = test: Cytotoxicity against human MCF7 cells assessed as cell viability measured after 24 hrs by CCK-8 assay; format: functional, cell-based; conditions: MCF7, 24 h
B16-F10 [25] = test: Cytotoxicity against GLUT1 - knocked down mouse B16-F10 cells assessed as cell viability after 24 hrs by CCK-8 assay; format: functional, cell-based
B16-F10 [26] = test: Antiproliferative activity against mouse B16-F10 cells assessed as inhibition of colony formation incubated for 12 days by crystal violet dye based assay; format: functional, cell-based; conditions: B16-F10, 288 h
B16-F10 [27] = test: Antiinvasive activity against mouse B16-F10 cells assessed as inhibition of cell migration at 0.75 microM incubated for 72 hrs by Matrigel based transwell invasion assay; format: functional

CCCCCCCCCCCC(=O)N[C@@H](CCCNC(=N)N)C(=O)NCC(=O)N[C@@H](Cc1c[nH]c2ccccc12)C(=O)N[C@@H](Cc1ccccc1)C(=O)N[C@@H](CCCNC(=N)N)C(=O)N[C@@H](C)C(=O)N[C@@H](CCSC)C(=O)N[C@@H](CCCNC(=N)N)C(=O)N[C@@H](CO)C(=O)N[C@H](C(=O)N[C@@H](C)C(=O)N[C@@H](CCCNC(=N)N)C(=O)N[C@@H](Cc1ccccc1)C(=O)N[C@H](C(=O)N[C@@H](C)C(=O)N[C@@H](CCCNC(=N)N)C(=O)N[C@@H](CCC(=O)O)C(=O)N[C@@H](CCCNC(=N)N)C(=O)N[C@@H](CC(C)C)C(=O)N[C@@H](CCCNC(=N)N)C(=O)N[C@@H](CCC(=O)O)C(=O)N[C@@H](Cc1cnc[nH]1)C(=O)N[C@@H](CC(C)C)C(N)=O)[C@@H](C)CC)[C@@H](C)CC (HELM PEPTIDE1{[CCCCCCCCCCCC(=O)[*:2]].R.G.W.F.R.A.M.R.S.I.A.R.F.I.A.R.E.R.L.R.E.H.L.[am]}$$$$V2.0)
Activity (B16-F10 [1]): inactive
Activity (B16-F10 [2]): Active
Activity (B16-F10 [3]): inactive
Activity (B16-F10 [4]): Active
deltaG [5]: -67.5 kcal/mol
Activity (B16-F10 [6]): Active
Activity [7]: Non-Toxic
Activity (B16-F10 [8]): Active
Activity (B16-F10 [9]): inactive
Activity [10]: Non-Toxic
Activity [11]: Non-Toxic
deltaG (Homo sapiens): -65.7 kcal/mol
Activity [12]: Non-Toxic
Activity (B16-F10 [13]): inactive
Activity (B16-F10 [14]): Active
Activity (B16-F10 [15]): Active
Activity [16]: Active
Activity (B16-F10 [17]): Active
Activity (B16-F10 [18]): Active
IC50 (B16-F10 [19]): 3 µM
Activity [20]: Non-Toxic
Activity [21]: Active
Stability [22]: Stable
deltaG [23]: -66.4 kcal/mol
Activity [24]: Active

CCCCCCCCCCCCCCCC(=O)N[C@@H](CCCNC(=N)N)C(=O)N[C@@H](Cc1c[nH]c2ccccc12)C(=O)N[C@@H](CCCCN)C(=O)N[C@H](C(=O)N[C@@H](Cc1ccccc1)C(=O)N[C@@H](CCCCN)C(=O)N[C@@H](CCCCN)C(=O)N[C@H](C(=O)N[C@@H](CCC(=O)O)C(=O)N[C@@H](CCCCN)C(=O)N[C@H](C(=O)NCC(=O)N[C@@H](CCC(N)=O)C(=O)N[C@@H](CC(N)=O)C(=O)N[C@H](C(=O)N[C@@H](CCCNC(=N)N)C(=O)N[C@@H](CC(=O)O)C(=O)NCC(=O)N[C@H](C(=O)N[C@H](C(=O)N[C@@H](CCCCN)C(=O)N[C@@H](C)C(=O)NCC(=O)N1CCC[C@H]1C(=O)N[C@@H](C)C(=O)N[C@H](C(=O)N[C@@H](C)C(=O)N[C@H](C(=O)N[C@H](C(=O)NCC(=O)N[C@@H](CCC(N)=O)C(=O)N[C@@H](C)C(=O)N[C@@H](C)C(=O)N[C@H](C(=O)N[C@H](C(N)=O)[C@@H](C)CC)[C@@H](C)O)C(C)C)C(C)C)C(C)C)C(C)C)[C@@H](C)CC)[C@@H](C)CC)C(C)C)[C@@H](C)CC)[C@@H](C)CC (HELM PEPTIDE1{[CCCCCCCCCCCCCCCC(=O)[*:2]].R.W.K.I.F.K.K.I.E.K.V.G.Q.N.I.R.D.G.I.V.K.A.G.P.A.V.A.V.V.G.Q.A.A.T.I.[am]}$$$$V2.0)
IC50 (MX1): < 8 µM
IC50 (MDA-MB-231): < 8 µM
IC50 (MCF7): < 8 µM

CCCCCCCCCCCC(=O)N[C@@H](CCCNC(=N)N)C(=O)NCC(=O)N[C@@H](Cc1c[nH]c2ccccc12)C(=O)N[C@@H](Cc1ccccc1)C(=O)N[C@@H](CCCNC(=N)N)C(=O)N[C@@H](C)C(=O)N[C@@H](CCSC)C(=O)N[C@@H](CCCNC(=N)N)C(=O)N[C@@H](CO)C(=O)N[C@H](C(=O)N[C@@H](C)C(=O)N[C@@H](CCCCNC(=O)CCCC(=O)NCCCO[C@@H]1O[C@H](CO)[C@@H](O)[C@H](O)[C@H]1O)C(=O)N[C@@H](Cc1ccccc1)C(=O)N[C@H](C(=O)N[C@@H](C)C(=O)N[C@@H](CCCNC(=N)N)C(=O)N[C@@H](CCC(=O)O)C(=O)N[C@@H](CCCNC(=N)N)C(=O)N[C@@H](CC(C)C)C(=O)N[C@@H](CCCNC(=N)N)C(=O)N[C@@H](CCC(=O)O)C(=O)N[C@@H](Cc1cnc[nH]1)C(=O)N[C@@H](CC(C)C)C(N)=O)[C@@H](C)CC)[C@@H](C)CC (Lauroyl-RGWFRAMRSIAK([Glutaryl-NH(CH2)3O(βDGlc)])FIARERLREHL-NH2)
Activity (B16-F10 [1]): Active
Activity (B16-F10 [2]): Active
Activity (B16-F10 [3]): Active
Activity (B16-F10 [4]): Active
deltaG [5]: -79.6 kcal/mol
Activity (B16-F10 [6]): Active
Activity (B16-F10 [25]): inactive
Activity [7]: Non-Toxic
Activity (B16-F10 [8]): Active
Activity (B16-F10 [9]): inactive
Activity [10]: Non-Toxic
Activity [11]: Non-Toxic
deltaG (Homo sapiens): -76.6 kcal/mol
Activity [12]: Non-Toxic
Activity (B16-F10 [13]): Active
Activity (B16-F10 [14]): Active
Activity (B16-F10 [15]): Active
Activity [16]: Active
IC50 (B16-F10 [26]): 0.37 µM
Activity (B16-F10 [17]): Active
Activity (B16-F10 [18]): Active
IC50 (B16-F10 [19]): 1.9 µM
Activity [20]: Non-Toxic
Activity [21]: Active
Stability [22]: Stable
deltaG [23]: -78 kcal/mol
Activity (B16-F10 [27]): Active
Activity [24]: inactive

H-RWKIFKKIEKVGQNIRDGIVKAGPAVAVVGQAATI-NH2
IC50 (MX1): < 8 µM
IC50 (MDA-MB-231): < 8 µM
IC50 (MCF7): < 8 µM
